From patent US20080107619A1, “Carbohydrate based cellulase inhibitors as feeding stimulants in termites” (University of Florida Research Foundation, Inc., priority 2006, published 2008)
Entries after “also recorded” stand apart in the source; their conditions may differ.

Key:
[1] = system: R. flavipes worker termites; test: Validative feeding bioassays with mono- and di-saccharides; format: in vivo; details: no-choice tests; concentrations tested 0.004-3.0% wt/wt; FIG. 12A
[2] = system: R. flavipes; details: choice tests; Waller et al.; cited from earlier work
[3] = system: R. virginicus; details: choice tests; Waller et al.; cited from earlier work
[4] = system: Formosan Subterranean Termite β-glucosidases; details: after feeding; Zhu et al.; cited from earlier work

## OC[C@H]1O[C@H](O[C@H]2[C@H](O)[C@@H](O)C(O)O[C@@H]2CO)[C@H](O)[C@@H](O)[C@@H]1O (mixture of isomers) [maltose]
[1]
  feeding stimulation: generally a feeding deterrent; also recorded: no significant feeding stimulation

## OC[C@H]1O[C@@](CO)(O[C@H]2O[C@H](CO)[C@@H](O)[C@H](O)[C@H]2O)[C@@H](O)[C@@H]1O [sucrose]
[2]
  consumption of treated paper substrates versus untreated controls: consumed more paper substrates
[3]
  consumption of treated paper substrates versus untreated controls: consumed more paper substrates

## COc1cc(C=CC(=O)O)cc(OC)c1O (stereo in doubt) [sinapinic acid]
[4]
  inhibition: completely ineffective

## O=C[C@H](O)[C@@H](O)[C@H](O[C@@H]1O[C@H](CO)[C@@H](O)[C@H](O)[C@H]1O)[C@H](O)CO [cellobiose]
[1]
  feeding stimulation: no significant feeding stimulation

## O=C[C@H](O)[C@@H](O)[C@H](O)CO [xylose]
[2]
  consumption of treated paper substrates versus untreated controls: consumed more paper substrates
[3]
  consumption of treated paper substrates versus untreated controls: consumed more paper substrates
